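Protocol summary: plate cells (96-well), add compound at 5 concentrations, incubate 48 h, interpolate endpoints linearly. Abbreviation: GI50, concentration required for 50% inhibition of growth. TGI: concentration producing complete growth inhibition.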
Key:
Assay in all cases: NCI tumour cell line growth inhibition, 48 h
CAKI-1 renal = system: CAKI-1 renal
DMS 114 small cell lung = system: DMS 114 small cell lung
HCC-2998 colon = system: HCC-2998 colon
KM20L2 colon = system: KM20L2 colon
NCI-H23 lung = system: NCI-H23 lung
RPMI-8226 leukemia = system: RPMI-8226 leukemia
SNB-78 CNS = system: SNB-78 CNS
SR leukemia = system: SR leukemia
M19-MEL melanoma = system: M19-MEL melanoma
T-47D breast = system: T-47D breast

SMILES | TGI (CAKI-1 renal) [µM] | TGI (DMS 114 small cell lung) [µM] | TGI (HCC-2998 colon) [µM] | TGI (KM20L2 colon) [µM] | TGI (NCI-H23 lung) [µM] | TGI (RPMI-8226 leukemia) [µM] | TGI (SNB-78 CNS) [µM] | TGI (SR leukemia) [µM] | TGI (M19-MEL melanoma) [µM] | GI50 (CAKI-1 renal) [µM] | GI50 (HCC-2998 colon) [µM] | GI50 (NCI-H23 lung) [µM] | GI50 (RPMI-8226 leukemia) [µM] | GI50 (SR leukemia) [µM] | GI50 (T-47D breast) [µM] | TGI (T-47D breast) [µM] | GI50 (KM20L2 colon) [µM] | GI50 (M19-MEL melanoma) [µM] | GI50 (SNB-78 CNS) [µM]
COc1ccc(/C=C/c2cc(OC)c(OC)c(OC)c2)cc1OC | > 100 | > 100 | > 100 | > 100 | > 100 | > 100 | 91.9 | > 100 |  |  |  |  |  |  |  |  |  |  | 
NC1=C(O)/C(=N/NS(=O)(=O)c2ccccc2)C(c2ccc3c(c2)OCO3)O1 (centres undefined) | > 100 | > 100 | > 100 | > 100 | > 100 | > 100 | > 100 | > 100 | 83.4 |  |  |  |  |  |  |  |  |  | 
O=C(N/C(=C\c1cccc([N+](=O)[O-])c1)c1nc2c3c(ccc2[nH]1)C(=O)c1ccccc1C3=O)c1ccccc1 | > 100 | > 100 |  | > 100 | > 100 | > 100 | > 100 | > 100 |  |  |  |  |  |  |  |  |  |  | 
O=[N+]([O-])c1cc(I)cc(/C=N/NS(=O)(=O)c2ccc(F)cc2)c1O | 63.1 | 52.2 | > 100 | > 100 | 38.9 | 54.8 | 69 | 46.2 | 86.7 |  |  |  |  |  |  |  |  |  | 
Cn1nc(-c2ccccc2)c2c(/C=C/c3ccc(F)cc3)onc2c1=O | 66 |  |  | > 100 | > 100 | > 100 |  |  | > 100 |  |  |  |  |  |  |  |  |  | 
C=CCN=C1NC(=O)C(CC(=O)Nc2cccc(Cl)c2)S1 (centres undefined) | > 100 | > 100 | > 100 | > 100 | > 100 | > 100 |  |  | > 100 |  |  |  |  |  |  |  |  |  | 
O=C(/C=C/c1ccc(-c2ccccc2)cc1)c1ccccc1 | > 100 | 31.8 | 33.7 |  | 41.8 | 61.8 | > 100 | 87.1 | 48.5 |  |  |  |  |  |  |  |  |  | 
COC(=O)CCCCCOS(=O)(=O)c1ccc(C)cc1 |  | > 100 | > 100 | > 100 | > 100 |  | > 100 | > 100 | > 100 |  |  |  |  |  |  |  |  |  | 
Cc1ccccc1SC(/C=C/NNC1=NC(c2ccccc2)C(c2ccccc2)=NN1)c1ccccc1 (centres undefined) | 30 | 78.4 | > 100 | > 100 | 50.2 | > 100 | 73.9 |  | > 100 |  |  |  |  |  |  |  |  |  | 
COc1ccc(C2=NN(C(C)=O)c3nc4ccccc4nc3O2)cc1 |  | > 100 | > 100 |  | > 100 | > 100 |  | > 100 | > 100 |  |  |  |  |  |  |  |  |  | 
Cn1c(=O)nc2n(-c3ccc(F)c(F)c3)c3ccccc3nc-2c1=O | > 100 | 18 | 23.7 | 23.8 | 29.9 | 72.2 | 54.6 |  | 3.44 |  |  |  |  |  |  |  |  |  | 
Oc1ccc(O)c(-n2cccn2)c1 | 33.3 | 89.7 | > 100 | > 100 | > 100 | > 100 | > 100 |  | 76.1 |  |  |  |  |  |  |  |  |  | 
COc1nc2c(c(=O)n1C)CN(c1ccccc1)C(=O)CN2C | > 100 |  | > 100 |  | > 100 | > 100 |  | > 100 |  | 20.1 | > 100 | 95.1 | 72.6 | 17 | 11.1 | > 100 |  |  | 
COc1ccc(-c2oc3ncnc(N)c3c2-c2ccc(NC(=O)Nc3cc(C(F)(F)F)ccc3F)cc2)cc1 | 6.69 |  | 5.81 |  | 3.26 | 10.1 |  | 8.61 |  | 0.838 | 2.08 | 0.823 | 2.26 | 0.833 | 1.94 | 10.1 |  |  | 
C[N+]1(CCNP(=S)(NCC[N+]2(C)Cc3c(ccc4c3OCO4)C3C2c2cc4c(cc2C[C@@H]3O)OCO4)NCC[N+]2(C)Cc3c(ccc4c3OCO4)C3C2c2cc4c(cc2C[C@@H]3O)OCO4)Cc2c(ccc3c2OCO3)C2C1c1cc3c(cc1C[C@H]2O)OCO3 (some centres undefined) | 69.5 |  |  |  |  | < 0.00191 |  |  |  |  | 5.22 | 2.25 |  | 1.75 |  |  | 2.13 | 2.04 | 2.7
CCCC(=O)Oc1ccc(/C=N/NC(N)=S)nc1 | > 100 | > 100 | > 100 | > 100 | > 100 | > 100 | > 100 | > 100 | > 100 |  |  |  |  |  |  |  |  |  | 
CCOC(=O)NC(=O)c1cn(C2CCCCC2)c(=O)n(C)c1=O | > 100 | > 100 | > 100 | > 100 | > 100 | > 100 | > 100 | > 100 | > 100 |  |  |  |  |  |  |  |  |  | 
CCCCCCCCCCNC(=S)OC | > 100 | 44.9 | > 100 | > 100 | > 100 | 36.7 | > 100 | 55.4 | 69.4 |  |  |  |  |  |  |  |  |  | 
CC(=O)O[C@H]1CC[C@@]2(C)C(=CC[C@H]3C(CC#N)[C@@](C)(C#N)CCC32)C1 (some centres undefined) |  | > 100 | > 100 | > 100 | > 100 | > 100 | > 100 |  | > 100 |  |  |  |  |  |  |  |  |  | 
COc1ccc2c(c1)C(=O)/C(=C/c1ccc(O)cc1)O2 | 5.66 |  | 33.6 |  | 34.4 | 3.49 |  | 4.71 |  | 1.88 | 17.3 | 13.9 | 1.55 | 1.79 | 7.27 | 37.6 |  |  | 
CC(=O)N(N=O)c1ccc(N(N=O)C(C)=O)cc1 | > 100 | > 100 | > 100 | > 100 | > 100 | > 100 | > 100 | > 100 | > 100 |  |  |  |  |  |  |  |  |  | 
COc1cc(OCCCN2CCCC2)ccc1Nc1ncc(Cl)c(Nc2ccccc2P(C)(C)=O)n1 | 5.64 |  | 25.7 |  | 13.2 | 12.2 |  |  |  | 2.02 | 2.65 | 1.98 | 2.68 | 0.0173 | 8.71 | 54.3 |  |  | 
C/C(=N\NC(=O)c1ccccc1O)c1c(O)cc(C)oc1=O |  | > 100 | > 100 | > 100 | > 100 | > 100 | > 100 |  | > 100 |  |  |  |  |  |  |  |  |  | 
Cc1ccc(NC(=O)C(=O)C2C(=O)NC(=O)NC2=O)c(C)c1 | > 100 | > 100 | > 100 | > 100 | > 100 | > 100 | > 100 | > 100 | > 100 |  |  |  |  |  |  |  |  |  | 

From PubChem BioAssay (NCI)
